No end group written: not given here.

We go through one substance from publication PMC12267067, “Targeting GRPR for sex hormone-dependent cancer after loss of E-cadherin” (Nature, 2025).

For assay [1], the system named is human melanoma cells (MDA-MB-435S). Put plainly: Anoikis assay, human melanoma cells. The following applies: 10 nM GRP and/or 1 µM RC, 48 h, poly-HEMA, low serum, annexin V/7-AAD. Type of assay: cell-based. As to the method: Six-well plates were coated with poly-HEMA to prevent cell attachment to the well surface. Cells were seeded in low-serum medium containing 10 nM GRP and/or 1 µM RC. Then, 48 hours after cell seeding, cells were collected and washed with ice-cold PBS twice and resuspended in annexin V binding buffer (556454, BD Biosciences) and incubated at room temperature in the dark with 7-amino-actinomycin D (7-AAD, 559925, BD Biosciences) and annexin-V for 15 min. Annexin V was coupled to FITC (556420, BD Biosciences) for the 1057 and MDA-MB-435S cell lines and to PE (556421, BD Biosciences) for the other cell lines. Cells were sorted using a FACS LSRFortessa (BD Biosciences) to determine the percentage of annexin V- and/or 7-AAD-positive cells using a 488 nm laser for annexin V-FITC and annexin V-PE and a 675 nm laser for7-AAD. All quantification was performed using Flow-Jo.

Assay [2] concerns ECAD in 501mel cells with and without GRPR. Put plainly: Western blot of ECAD with and without GRP. The following applies: 501mel cells expressing GRPR, 10 nM GRP. Type of assay: cell-based, human. As to the method:
Whole-cell lysates were prepared and analysed as described previously. The primary antibodies used were: E-cadherin (610182, BD Transduction Laboratories, dilution 1/1,000); ERα (MA1-27107, Invitrogen, dilution 1/500); YAP (14074, Cell Signaling, dilution 1/1,000); β-actin (A5441, Sigma, dilution 1/5,000); and vinculin (4650, Cell Signaling, dilution 1/5,000). All raw data are provided in Supplementary Fig. 1.
(Immunoblotting shows a protein as a band on a membrane.)

Another assay deals with GRPR, Gαq/11 activation. Briefly: IP1 detection (HTRF IP-one Gq kit). Type of assay: cell-based, mouse. The following applies: 10 nM GRP, 30 min, 37 °C. As to the method:
IP1 levels were quantified using the HTRF IP-one Gq detection kit (62IPAPEB, Revvity) following the manufacturer’s protocol. We treated 4,000 cells for 30 min at 37 °C in StimB buffer with 10 nM GRP, 1 µM RC-3095, 1 µM ICI-182,780 or DMSO. FRET signals (620 nm and 665 nm, excitation at 385 nm) were measured using a Clariostar plate reader (BMG Labtech).
A general note: TR-FRET usually uses a lanthanide donor and a delayed reading to cut background.

In assay [3] the test system is YAP1 activation signature. Put plainly: YAP1 activation signature (GSEA) and Yap1 score by RNA-seq, murine melanoma cell lines. Type of assay: cell-based, mouse. The following applies: 4 h, 10 nM GRP. As to the method: The transcriptome, copy-number alteration, mutations and corresponding clinical data of the TCGA–SKCM (n = 473), TCGA–BRCA (n = 1,215), TCGA–STAD (n = 450), TCGA–LUSC (n = 553) and TCGA–KIRC (n = 606) datasets were retrieved from the National Cancer Institute Genomic Data Commons repository using the TCGAbiolinks R package in August 2022 (ref. [51]). The mRNA levels were calculated from RNA-sequencing read counts using RNA-Seq V2 RSEM and normalized to TPM. Expression of CDH1, CCND1, BRAF and KRAS was modelled over time using LOWESS smoothing with 1,860 points. Expression levels from acral melanoma were retrieved from GEO under accession number GSE162682. Survival analyses were carried out by separating the cohort into two groups according to gene expression. The threshold was set to 1 TPM, commonly considered to be the limit for sufficient protein expression of the transcript. The negative group was set to an expression 0.1 TPM or less to have clear separation in terms of expression (factor 10) from the positive group. The YAP and melanoma phenotypic state scores were obtained by averaging the expression of detailed marker genes, or for the mice, from their murine orthologues as described in ref. [52]. The pigmentation state was defined by the expression of MITF, MLANA, TRPM1, DCT and TYR; the starved-like melanoma cell phenotype by the expression of CD36, DLX5, IP6K3, PAX3 and TRIM67; the invasive state by the expression of AXL, CYR61, TCF4, LOXL2, TNC and WNT5A; and the neural crest cell-like phenotypic state by the expression of AQP1, GFRA2, L1CAM, NGFR, SLC22A17 and TMEM176B[52]. The scoring of YAP1 activation was determined from the expression of CYR61, CTGF, TEAD4, LATS2 and CRIM1. Yap scoring was obtained by averaging the fold change of each Yap1 target. The anoikis-resistance score was calculated on the basis of the expression of S100A7A, MTPN, ATP10B, S100A8, RSAD2, RENBP, CDHR1 and CD36. The ER-activation score was calculated according to the expressions of GATA4, SDK2, EGR3, IL19, GSG1L, RSPO1, PGR, IL24 and PDZK1. Expression data from human and mouse normal tissue were downloaded from the Human Protein Atlas (https://www.proteinatlas.org/) and from the EBI expression atlas (https://www.ebi.ac.uk/gxa/home), respectively, both accessed on 7 October 2022. The anatogram was generated using the gganatogram R package.
RNA was extracted from cells and mouse tumours using the miRNeasy kit (Qiagen, 217004), according to the manufacturer’s protocol. RNA integrity (RIN) was measured using an Agilent Bioanalyser 2100 (Agilent Technologies) and an RNA nano 6000 kit (5067-1511, Agilent Technologies). Only RNA with an RNA integrity number (RIN) of more than 7 was used for analysis. This threshold led to the sequencing of 72 mouse melanoma cell lines, 36 human melanoma cell lines and 32 mouse tumours. RNA concentrations were measured using a NanoDrop (NanoDrop Technologies). […] The libraries were equimolarly pooled and subjected to qPCR quantification using the KAPA library quantification kit (Roche). Sequencing was carried out on a NovaSeq 6000 instrument (Illumina) based on a 2 × 100 cycle mode (paired-end reads, 100 bases) using an S1 flow cell to obtain approximately 35 million clusters (70 million raw paired-end reads) per sample. Reads were mapped to the mm10 mouse reference genome (gencode m13 version-GRCm38.p5) or hg38 human reference genome (gencode 42 version-GRCh38.p13) using STAR[60]. […]

Regarding “GRP: GRPR's natural agonist, endogenous ligand of GRPR (4011670 bachem) (VPLPAGGGTVLTKMYPRGNHWAVGHLM; not fully specified; ends and bridges not checked; UniProt P07492 24-50, looked up)”, the “anoikis resistance (apoptotic cells without matrix attachment), GRPR+ human cells” value in assay [1] was “promoted”. Further, the ECAD protein level result in assay [2] is “lower”. Also, the “IP1 production, GRPR-negative cells” value in the assay on GRPR, Gαq/11 activation was “not GRPR-negative cells”. Besides, in the assay on GRPR, Gαq/11 activation (4,000 cells, StimB buffer, 1 µM RC-3095, 1 µM ICI-182,780 (pre-treatment)), the “IP1 production, GRPR-positive cells” value is recorded as “triggered IP1 production”. Moreover, the “GSEA YAP activation, GRP vs. Mock: NES” value in assay [3] (1014-Ct, female Ecad, Grpr-negative, FDR 0.585) was determined as 0.936; in assay [3] (1014-Grpr, female Ecad, FDR <0.0001) it was 2.77; in assay [3] (1064-par, female ΔEcad, FDR <0.0001) it was 2.34; in assay [3] (1181-Ct, male Ecad, Grpr-negative, FDR 0.986) it was 0.527; in assay [3] (1181-Grpr, male Ecad, FDR 0.003) it was 1.66.
